Test results as given in patent publication US20260317324A1, “BIFUNCTIONAL COMPOUNDS FOR DEGRADING BRAF VIA UBIQUITIN PROTEOSOME PATHWAY” (Nurix Therapeutics, Inc., priority 2023, published 2026).

What was measured:
Type in all cases: cell-based
BRAF V600E = molecular target: T1, BRAF V600E (Homo sapiens, UniProt P15056, V600E); test: BRAF HiBiT degradation assay, C-terminal HiBiT-tagged BRAF V600E A375 cells (clone 1F10), Nano-Glo HiBiT Lytic assay; conditions: for Dmax: A-375
T1 construct: endogenous C-terminal HiBiT fusion tag on BRAF V600E allele; endogenous in cells; host or cells: A375 clone 1F10 (CRISPR-Cas9 knock-in of the HiBiT tag; parental A375 from ATCC)
T1 sequence (P15056 whole entry V600E, the tested form may be a part): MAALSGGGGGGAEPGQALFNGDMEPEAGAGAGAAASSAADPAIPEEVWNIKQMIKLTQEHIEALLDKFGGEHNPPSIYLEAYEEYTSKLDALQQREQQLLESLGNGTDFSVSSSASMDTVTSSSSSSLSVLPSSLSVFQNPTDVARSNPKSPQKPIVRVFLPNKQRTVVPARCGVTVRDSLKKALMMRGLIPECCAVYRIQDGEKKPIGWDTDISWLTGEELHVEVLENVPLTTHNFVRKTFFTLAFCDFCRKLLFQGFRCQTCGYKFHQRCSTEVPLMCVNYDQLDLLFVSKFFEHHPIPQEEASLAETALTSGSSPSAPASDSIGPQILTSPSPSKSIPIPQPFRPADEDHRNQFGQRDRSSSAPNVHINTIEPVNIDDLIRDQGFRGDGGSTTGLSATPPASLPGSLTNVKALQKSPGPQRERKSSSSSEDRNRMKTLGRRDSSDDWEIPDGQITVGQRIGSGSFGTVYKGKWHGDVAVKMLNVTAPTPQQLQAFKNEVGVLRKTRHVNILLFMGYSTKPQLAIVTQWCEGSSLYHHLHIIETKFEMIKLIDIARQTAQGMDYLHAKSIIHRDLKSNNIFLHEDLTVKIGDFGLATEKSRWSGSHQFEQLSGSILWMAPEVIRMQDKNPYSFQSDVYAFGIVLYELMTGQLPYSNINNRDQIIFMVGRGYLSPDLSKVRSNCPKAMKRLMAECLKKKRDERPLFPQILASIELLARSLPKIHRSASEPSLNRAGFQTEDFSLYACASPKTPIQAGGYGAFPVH
Procedure, shortened: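 Endogenous BRAF V600E-HiBiT A375 (1F10), 10,000 cells/well, 24 h preculture; cpd 11-pt, 1 μM–0.01 nM half-log, n=2, 0.2% DMSO; HiBiT lytic detection 10 min RT; DC50 = fitted conc at Y=50; Obs. Dmax vs DMSO.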

BRAF G466V = molecular target: T2, BRAF G466V (Homo sapiens, UniProt P15056, G466V); test: BRAF HiBiT degradation assay, C-terminal HiBiT-tagged BRAF G466V overexpressed in HCT-116 BRAF−/− cells (clone 8), Nano-Glo HiBiT Lytic assay
T2 construct: Horizon Discovery (HCT-116 BRAF−/− cells); host or cells: HCT-116 BRAF−/− cells, clone 8, lentiviral transduction
T2 sequence (P15056 whole entry G466V): as the sequence (P15056 whole entry V600E, the tested form may be a part) above, with G466V, E600V counted along it
Procedure, shortened: (§1)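 Luminescence from the lytic HiBiT reagent, read after 10 min at room temperature, measured tagged BRAF remaining in lentivirally transduced HCT-116 BRAF−/− cells. Compounds were tested from 1 μM to 0.01 nM in half-log steps at 0.2% DMSO. DC50 values were fitted at 50% remaining.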

BRAF G469A = molecular target: T3, BRAF G469A (Homo sapiens, UniProt P15056, G469A); test: BRAF HiBiT degradation assay, C-terminal HiBiT-tagged BRAF G469A overexpressed in HCT-116 BRAF−/− cells (clone 34), Nano-Glo HiBiT Lytic assay
T3 construct: Horizon Discovery (HCT-116 BRAF−/− cells); host or cells: HCT-116 BRAF−/− cells, clone 34, lentiviral transduction
T3 sequence (P15056 whole entry G469A): as the sequence (P15056 whole entry V600E, the tested form may be a part) above, with G469A, E600V counted along it
Procedure, shortened: as §1

BRAF D594G = molecular target: T4, BRAF D594G (Homo sapiens, UniProt P15056, D594G); test: BRAF HiBiT degradation assay, C-terminal HiBiT-tagged BRAF D594G overexpressed in HCT-116 BRAF−/− cells (clone 63), Nano-Glo HiBiT Lytic assay
T4 construct: Horizon Discovery (HCT-116 BRAF−/− cells); host or cells: HCT-116 BRAF−/− cells, clone 63, lentiviral transduction
T4 sequence (P15056 whole entry D594G): as the sequence (P15056 whole entry V600E, the tested form may be a part) above, with D594G, E600V counted along it
Procedure, shortened: as §1

[1] = A375 (BRAF V600E), DC50 at 50%: fitted conc. at Y=50
[2] = A375 (BRAF V600E), percentage protein degraded at maximal compound effect relative to DMSO
[3] = BRAF G466V, DC50 at 50%: fitted conc. at Y=50
[4] = HCT-116, BRAF G466V, percentage protein degraded at maximal compound effect relative to DMSO
[5] = Class 2, BRAF G469A, DC50 at 50%: fitted conc. at Y=50
[6] = HCT-116, Class 2, BRAF G469A, percentage protein degraded at maximal compound effect relative to DMSO
[7] = BRAF D594G, DC50 at 50%: fitted conc. at Y=50
[8] = HCT-116, BRAF D594G, percentage protein degraded at maximal compound effect relative to DMSO
[9] = A375 (BRAF V600E, Class 1), DC50 at 50% degradation
[10] = A375 (BRAF V600E, Class 1), observed Dmax, % protein degraded relative to DMSO control
[11] = BRAF G466V (Class 3), HCT-116 BRAF−/− cells, DC50 at 50% degradation
[12] = BRAF G466V (Class 3), HCT-116 BRAF−/− cells, observed Dmax relative to DMSO control
[13] = BRAF G469A (Class 2), HCT-116 BRAF−/− cells, DC50 at 50% degradation
[14] = BRAF G469A (Class 2), HCT-116 BRAF−/− cells, observed Dmax relative to DMSO control
[15] = BRAF D594G (Class 3), HCT-116 BRAF−/− cells, DC50 at 50% degradation
[16] = BRAF D594G (Class 3), HCT-116 BRAF−/− cells, observed Dmax relative to DMSO control

Row | SMILES | DC50 (BRAF V600E; [1]) [nM] | Dmax (BRAF V600E; [2]) [%] | DC50 (BRAF G466V; [3]) [nM] | Dmax (BRAF G466V; [4]) [%] | DC50 (BRAF G469A; [5]) [nM] | Dmax (BRAF G469A; [6]) [%] | DC50 (BRAF D594G; [7]) [nM] | Dmax (BRAF D594G; [8]) [%] | DC50 (BRAF V600E; [9]) [nM] | Dmax (BRAF V600E; [10]) [%] | DC50 (BRAF G466V; [11]) [nM] | Dmax (BRAF G466V; [12]) [%] | DC50 (BRAF G469A; [13]) [nM] | Dmax (BRAF G469A; [14]) [%] | DC50 (BRAF D594G; [15]) [nM] | Dmax (BRAF D594G; [16]) [%]
1 | CCCS(=O)(=O)Nc1cccc(-c2cn(C3CCN(C(=O)C4CCN(CC5CCN(c6ccc(C7CCC(=O)NC7=O)cn6)CC5)CC4)CC3)nc2-c2ccncc2)c1F (racemic) [Compound 6, Rac-N-{3-[1-(1-{1-[(1-{5-[(3R)-2,6-dioxopiperidin-3-yl]pyridin-2-yl}piperidin-4-yl)methyl]piperidine-4-carbonyl}piperidin-4-yl)-3-(pyridin-4-yl)-1H-pyrazol-4-yl]-2-fluorophenyl}propane-1-sulfonamide] | 10 to 50 | > 70 | > 500 | 30 to 70 | > 500 | < 30 | > 500 | 30 to 70 | – | – | – | – | – | – | – | –
2 | CCCS(=O)(=O)Nc1cccc(-c2cn(-c3ccc(N4CCN(CC5CCN(c6ccc(C7CCC(=O)NC7=O)cn6)CC5)CC4)nc3)nc2-c2ccncc2)c1F (racemic) [Compound 3, Rac-N-{3-[1-(6-{4-[(1-{5-[(3R)-2,6-dioxopiperidin-3-yl]pyridin-2-yl}piperidin-4-yl)methyl]piperazin-1-yl}pyridin-3-yl)-3-(pyridin-4-yl)-1H-pyrazol-4-yl]-2-fluorophenyl}propane-1-sulfonamide] | 50 to 500 | > 70 | 10 to 50 | 30 to 70 | > 500 | 30 to 70 | 10 to 50 | 30 to 70 | – | – | – | – | – | – | – | –
3 | CCCS(=O)(=O)Nc1cccc(-c2nc(-c3ccc(N4CCN(CC5CCN(c6ccc([C@@H]7CCC(=O)NC7=O)cc6)CC5)CC4)cc3)sc2-c2ccnc(N)n2)c1F [Compound 186, N-{3-[5-(2-aminopyrimidin-4-yl)-2-(4-{4-[(1-{4-[(3S)-2,6-dioxopiperidin-3-yl]phenyl}piperidin-4-yl)methyl]piperazin-1-yl}phenyl)-1,3-thiazol-4-yl]-2-fluorophenyl}propane-1-sulfonamide] | 10 to 50 | > 70 | > 500 | 30 to 70 | > 500 | < 30 | > 500 | 30 to 70 | – | – | – | – | – | – | – | –
4 | CCCS(=O)(=O)Nc1cccc(-c2nc(C(C)(C)C)sc2-c2ccnc(Nc3cccc(OC4CCN(C(=O)C[C@@H]5CCN(c6ccc(C7CCC(=O)NC7=O)cc6)C5)CC4)c3)n2)c1F (mixture of isomers) [Compound 92, N-(3-{2-tert-butyl-5-[2-({3-[(1-{2-[(3S)-1-{4-[(3RS)-2,6-dioxopiperidin-3-yl]phenyl}pyrrolidin-3-yl]acetyl}piperidin-4-yl)oxy]phenyl}amino)pyrimidin-4-yl]-1,3-thiazol-4-yl}-2-fluorophenyl)propane-1-sulfonamide] | > 500 | 30 to 70 | > 500 | < 30 | > 500 | < 30 | > 500 | < 30 | – | – | – | – | – | – | – | –
5 | O=C1CCN(c2ccc(N3CCC(CN4CCN(c5ccc(-n6cc(-c7cc(Cl)cc(NS(=O)(=O)N8CC(F)C8)c7F)c(-c7ccncc7)n6)cc5)CC4)CC3)nc2)C(=O)N1 [Compound 368, N-[5-chloro-3-(1-{4-[4-({1-[5-(2,4-dioxo-1,3-diazinan-1-yl)pyridin-2-yl]piperidin-4-yl}methyl)piperazin-1-yl]phenyl}-3-(pyridin-4-yl)-1H-pyrazol-4-yl)-2-fluorophenyl]-3-fluoroazetidine-1-sulfonamide] | – | – | – | – | – | – | – | – | < 10 | > 70 | < 10 | 30 to 70 | 10 to 50 | 30 to 70 | < 10 | 30 to 70
6 | C[C@@H]1CN(c2ccc(-n3cc(-c4cc(Cl)cc(NS(=O)(=O)N5CCCC5)c4F)c(-c4ccncc4)n3)c(F)c2)C[C@@H](C)N1CC1CCN(c2ccc(C3CCC(=O)NC3=O)cn2)CC1 (mixture of isomers) [Compound 382, N-(5-chloro-3-(1-(4-((3R,5R)-4-((1-(5-((RS)-2,6-dioxopiperidin-3-yl)pyridin-2-yl)piperidin-4-yl)methyl)-3,5-dimethylpiperazin-1-yl)-2-fluorophenyl)-3-(pyridin-4-yl)-1H-pyrazol-4-yl)-2-fluorophenyl)pyrrolidine-1-sulfonamide] | – | – | – | – | – | – | – | – | < 10 | > 70 | < 10 | > 70 | 10 to 50 | > 70 | < 10 | > 70
7 | CCN(C)S(=O)(=O)Nc1cc(F)cc(-c2cn(-c3ccc(N4CCN(CC5CCN(c6ccc([C@H]7CCC(=O)NC7=O)cn6)CC5)CC4)cc3)nc2-c2ccncc2)c1F [Compound 375, (3R)-3-(6-{4-[(4-{4-[4-(3-{[ethyl(methyl)sulfamoyl]amino}-2,5-difluorophenyl)-3-(pyridin-4-yl)-1H-pyrazol-1-yl]phenyl}piperazin-1-yl)methyl]piperidin-1-yl}pyridin-3-yl)piperidine-2,6-dione] | – | – | – | – | – | – | – | – | < 10 | > 70 | < 10 | > 70 | 10 to 50 | > 70 | < 10 | > 70
8 | CCC(C)S(=O)(=O)Nc1cc(Cl)cc(-c2cn(-c3ccc(N4CCN(CC5CCN(c6ccc([C@H]7CCC(=O)NC7=O)cn6)CC5)CC4)cc3)nc2-c2ccncc2)c1F (mixture of isomers) [Compound 327, (RS)—N-(5-chloro-3-(1-(4-(4-((1-(5-((R)-2,6-dioxopiperidin-3-yl)pyridin-2-yl)piperidin-4-yl)methyl)piperazin-1-yl)phenyl)-3-(pyridin-4-yl)-1H-pyrazol-4-yl)-2-fluorophenyl)butane-2-sulfonamide] | – | – | – | – | – | – | – | – | < 10 | > 70 | < 10 | > 70 | 10 to 50 | > 70 | < 10 | > 70
9 | CCN(C)S(=O)(=O)Nc1cc(Cl)cc(-c2cn(-c3ccc(N4CCN(CC5CCN(c6ccc(C7CCC(=O)NC7=O)cn6)CC5)CC4)cn3)nc2-c2ccncc2)c1F (racemic) [Compound 312, Rac-(3R)-3-(6-{4-[(4-{6-[4-(5-chloro-3-{[ethyl(methyl)sulfamoyl]amino}-2-fluorophenyl)-3-(pyridin-4-yl)-1H-pyrazol-1-yl]pyridin-3-yl}piperazin-1-yl)methyl]piperidin-1-yl}pyridin-3-yl)piperidine-2,6-dione] | – | – | – | – | – | – | – | – | < 10 | > 70 | < 10 | > 70 | < 10 | 30 to 70 | < 10 | > 70
10 | O=C1CCC(c2ccc(N3CCC(CN4CCN(c5ccc(-n6cc(-c7cc(Cl)cc(NS(=O)(=O)N8CC[C@@H](F)C8)c7F)c(-c7ccncc7)n6)c(F)c5)CC4)CC3)nc2)C(=O)N1 (mixture of isomers) [Compound 335, (3R)—N-{5-chloro-3-[1-(4-{4-[(1-{5-[(3RS)-2,6-dioxopiperidin-3-yl]pyridin-2-yl}piperidin-4-yl)methyl]piperazin-1-yl}-2-fluorophenyl)-3-(pyridin-4-yl)-1H-pyrazol-4-yl]-2-fluorophenyl}-3-fluoropyrrolidine-1-sulfonamide] | – | – | – | – | – | – | – | – | < 10 | > 70 | < 10 | > 70 | 10 to 50 | > 70 | < 10 | > 70
